From patent US20240239854A1, “ANTIMICROBIAL PEPTIDES AND MODIFICATIONS THEREOF” (Donald Danforth Plant Science Center, priority 2022, published 2024)
In brackets after ≈: the same amount, converted by molar mass. Read-outs that look alike come from different tables or passages of the source. Positions of bridges follow the written chain, without caps; N, C: chain ends. Non-standard residues stand in square brackets, D forms with d. Residues, ends and D or L forms follow the SMILES beside them. No end group written: not given here. Dab = NCC[C@H](N)C(=O)O

Experiments:
[1] = tested on: Colletotrichum gloeosporioides; experiment: 96-well plate antifungal MIC, resazurin cell viability (Example 4); assay type: cell-based; conditions: Table 19; unit not given, peptide concentrations in μM
[2] = tested on: Alternaria alternata; experiment: as above; assay type: cell-based; conditions: Table 19; unit not given, peptide concentrations in μM
[3] = tested on: Cercospora sojina; experiment: as above; assay type: cell-based; conditions: Table 19; unit not given, peptide concentrations in μM
[4] = tested on: Botrytis cinerea T-4; conditions: for MIC (μM) SFM: Table 18, SFM; for MIC (μM) (SFM + 2 mM CaCl2): Table 18, SFM + 2 mM CaCl2; for MIC (μM) (SFM + 100 mM KCl): Table 18, SFM + 100 mM KCl; for MIC (μM) (SFM + 100 mM NaCl): Table 18, SFM + 100 mM NaCl
[5] = tested on: B. cinerea; experiment: Semi-in planta drop inoculation assay on detached leaves of N. benthamiana, gray mold (Example 4); assay type: in vivo; conditions: for Reduction of gray mold disease symptoms (lesion sizes): peptide 1.5, 3 and 6 μM, 48 h after inoculation
[6] = tested on: F. graminearum; conditions: for Antifungal activity relative to the wild-type GMA4C_AC control: in vitro, low cationic conditions, F. graminearum
[7] = tested on: B. cinerea; conditions: for Antifungal activity relative to the wild-type GMA4C_AC control: in vitro, low cationic conditions
[8] = tested on: F. oxysporum; experiment: Antifungal MIC assay in SFM culture media (Example 1); assay type: cell-based; conditions: for Antifungal activity relative to the wild-type GMA4C_AC control: in vitro, low cationic conditions, F. oxysporum
[9] = tested on: P. capsici; experiment: as above; assay type: cell-based; conditions: in vitro, low cationic conditions
[10] = B. cinerea, 100 mM NaCl or 100 mM KCl

Compound | In vitro antifungal activity (MIC) Colletotrichum gloeosporioides [1] | In vitro antifungal activity (MIC) Alternaria alternata [2] | In vitro antifungal activity (MIC) Cercospora sojina [3] | MIC (μM) SFM [4] | MIC (μM) (SFM + 2 mM CaCl2) [4] | MIC (μM) (SFM + 100 mM KCl) [4] | MIC (μM) (SFM + 100 mM NaCl) [4] | other results
C[C@H](NC(=O)CN)C(=O)N[C@@H](CS)C(=O)N[C@@H](Cc1c[nH]cn1)C(=O)N[C@@H](CCCNC(=N)N)C(=O)N[C@@H](CCC(N)=O)C(=O)NCC(=O)N[C@@H](Cc1ccccc1)C(=O)NCC(=O)N[C@@H](Cc1ccccc1)C(=O)N[C@@H](C)C(=O)N[C@@H](CS)C(=O)N[C@@H](Cc1ccccc1)C(=O)N[C@@H](CS)C(=O)N[C@@H](Cc1ccc(O)cc1)C(=O)N[C@@H](CCCCN)C(=O)N[C@@H](CCCCN)C(=O)N[C@@H](CS)C(N)=O [GMA5CA_WT] (H-GACHRQGFGFACFCYKKC-NH2) | >12 | 6 | 12 | – | – | – | – | –
CC[C@H](C)[C@@H]1NC(=O)[C@H](CCCNC(=N)N)NC(=O)[C@H]([C@@H](C)O)NC(=O)[C@H](Cc2c[nH]c3ccccc23)NC(=O)[C@H](Cc2ccc(O)cc2)NC(=O)[C@H](Cc2c[nH]c3ccccc23)NC(=O)[C@H](CCCNC(=N)N)NC(=O)[C@H](CCCNC(=N)N)NC(=O)[C@H](CCCNC(=N)N)NC(=O)[C@H](Cc2ccccc2)NC(=O)CNC(=O)[C@H](CCCCN)NC(=O)[C@@H](NC(=O)[C@H](CCCNC(=N)N)NC(=O)CNC(=O)CN)CSSC[C@@H](C(N)=O)NC1=O [GMA4C_V10] (H-GGRCKGFRRRWYWTRIC-NH2; disulfide 4-17; N-terminus assumed) | >12 | >12 | 6 | 3 µM (≈ 6.6 µg/mL) | 3 µM | 3 to 6 µM | 3 µM | Reduction of gray mold symptoms at low concentrations ([5]; detached N. benthamiana leaves, peptide 1.5 μM and 3 μM): more effective in reducing the symptoms of gray mold than GMA4C_V9; Reduction of gray mold disease symptoms (lesion sizes) ([5]; detached N. benthamiana leaves): effective in reducing gray mold disease symptoms
GRCRGFRRRCFCTTHC-NH2 (cysteine pairing not given here) [GMA4AC] | >12 | >12 | >12 | – | – | – | – | –
C[C@@H](O)[C@H](NC(=O)[C@H](CS)NC(=O)[C@H](Cc1ccccc1)NC(=O)[C@H](CS)NC(=O)[C@H](CCCNC(=N)N)NC(=O)[C@H](CCCNC(=N)N)NC(=O)[C@H](CCCNC(=N)N)NC(=O)[C@H](Cc1ccccc1)NC(=O)CNC(=O)[C@H](CCCNC(=N)N)NC(=O)[C@H](CS)NC(=O)[C@H](CCCNC(=N)N)NC(=O)CNC(=O)CN)C(=O)N[C@H](C(=O)N[C@@H](Cc1c[nH]cn1)C(=O)N[C@@H](CS)C(N)=O)[C@@H](C)O [GMA4C_AC] (H-GGRCRGFRRRCFCTTHC-NH2; N-terminus assumed) | – | – | – | – | – | – | – | F. graminearum MIC [6]: 3 µM; MIC (μM) Fusarium graminearum [6]: 3 µM (≈ 6.05 µg/mL); MIC Values (μM) against F. graminearum [6]: 6 µM (≈ 12.1 µg/mL); Retention of antifungal activity in presence of cations [7, 10]: retain their antifungal activity; SFM + 2 mM CaCl2 MIC ([7]; Table 4, B. cinerea): >6 (a few μM; SFM + 2 mM CaCl2 MIC ([7]; Table 10, values repeat Table 4 (B. cinerea)): >6 (a μM; F. oxysporum MIC ([8]; Table 2, SFM culture media): 6 μuM
CC[C@H](C)[C@@H]1NC(=O)[C@H](CCCNC(=N)N)NC(=O)[C@H]([C@@H](C)O)NC(=O)[C@H](Cc2ccccc2)NC(=O)[C@H](Cc2c[nH]c3ccccc23)NC(=O)[C@H](Cc2ccccc2)NC(=O)[C@H](CCCNC(=N)N)NC(=O)[C@H](CCCNC(=N)N)NC(=O)[C@H](CC(C)C)NC(=O)[C@H](Cc2ccccc2)NC(=O)CNC(=O)[C@H](CCCCN)NC(=O)[C@@H](NC(=O)[C@H](CCCNC(=N)N)NC(=O)CNC(=O)CN)CSSC[C@@H](C(N)=O)NC1=O [GMA4C_V9] (H-GGRCKGFLRRFWFTRIC-NH2; disulfide 4-17; N-terminus assumed) | >12 | >12 | 6 | 3 µM (≈ 6.3 µg/mL) | 12 µM | 6 to 12 µM | 3 µM | Reduction of gray mold disease symptoms (lesion sizes) ([5]; detached N. benthamiana leaves): effective in reducing gray mold disease symptoms
N=C(N)NCCC[C@H](NC(=O)CNC(=O)[C@@H](N)Cc1ccccc1)C(=O)N[C@@H](CS)C(=O)N[C@@H](CCCNC(=N)N)C(=O)NCC(=O)N[C@@H](Cc1ccccc1)C(=O)N[C@@H](CCCNC(=N)N)C(=O)N[C@@H](CCCNC(=N)N)C(=O)N[C@@H](CCCNC(=N)N)C(=O)N[C@@H](CS)C(=O)N[C@@H](Cc1ccccc1)C(=O)N[C@@H](CS)C(=O)N[C@@H](Cc1c[nH]c2ccccc12)C(=O)N[C@@H](CCCNC(=N)N)C(=O)N[C@@H](Cc1c[nH]c2ccccc12)C(=O)N[C@@H](CS)C(N)=O [GMA4C_V4A] (H-FGRCRGFRRRCFCWRWC-NH2; N-terminus assumed) | – | – | – | – | – | – | – | Antifungal activity relative to the wild-type GMA4C_AC control [6]: equivalent; Potency relative to GMA4C_AC in presence of cations [7, 10]: 2 fold; Fungal growth inhibition at 6 μM ([7]; B. cinerea, in presence of 2 mM CaCl2, peptide 6 μM): inhibit fungal growth; Antifungal activity relative to the wild-type GMA4C_AC control ([7]; B. cinerea): equivalent; Antifungal activity relative to the wild-type GMA4C_AC control [8]: equivalent; Antifungal activity relative to the wild-type GMA4C_AC control [9]: equivalent
C[C@H](NC(=O)CN)C(=O)N[C@H]1CSSC[C@@H](C(N)=O)NC(=O)[C@H](CCCCN)NC(=O)[C@H](CCCCN)NC(=O)[C@H](Cc2ccc(O)cc2)NC(=O)[C@H](Cc2c[nH]c3ccccc23)NC(=O)[C@H](Cc2ccccc2)NC(=O)[C@H](Cc2c[nH]c3ccccc23)NC(=O)[C@H](C)NC(=O)[C@H](Cc2ccccc2)NC(=O)CNC(=O)[C@H](Cc2ccccc2)NC(=O)CNC(=O)[C@H](CCC(N)=O)NC(=O)[C@H](CCCNC(=N)N)NC(=O)[C@H](Cc2c[nH]cn2)NC1=O [GMA5CA_V3] (H-GACHRQGFGFAWFWYKKC-NH2; disulfide 3-18; N-terminus assumed) | >12 | 3 | 6 | 3 µM (≈ 6.57 µg/mL) | >12 µM | >12 µM | >12 µM | –
C[C@H](NC(=O)CN)C(=O)N[C@H]1CSSC[C@@H](C(N)=O)NC(=O)[C@H](CCCCN)NC(=O)[C@H](CCCCN)NC(=O)[C@H](Cc2ccc(O)cc2)NC(=O)[C@H](Cc2ccccc2)NC(=O)[C@H](Cc2ccccc2)NC(=O)[C@H](Cc2ccccc2)NC(=O)[C@H](C)NC(=O)[C@H](Cc2ccccc2)NC(=O)CNC(=O)[C@H](Cc2ccccc2)NC(=O)CNC(=O)[C@H](CCC(N)=O)NC(=O)[C@H](CCCNC(=N)N)NC(=O)[C@H](Cc2c[nH]cn2)NC1=O [GMA5CA_V4] (H-GACHRQGFGFAFFFYKKC-NH2; disulfide 3-18; N-terminus assumed) | >12 | 3 | 6 | 3 µM (≈ 6.33 µg/mL) | >12 µM | >12 µM | >12 µM | –
NCC[C@H](NC(=O)CNC(=O)[C@@H](N)Cc1ccccc1)C(=O)N[C@@H](CS)C(=O)N[C@@H](CCN)C(=O)NCC(=O)N[C@@H](Cc1ccccc1)C(=O)N[C@@H](CCN)C(=O)N[C@@H](CCN)C(=O)N[C@@H](CCN)C(=O)N[C@@H](CS)C(=O)N[C@@H](Cc1ccccc1)C(=O)N[C@@H](CS)C(=O)N[C@@H](Cc1c[nH]c2ccccc12)C(=O)N[C@@H](CCN)C(=O)N[C@@H](Cc1c[nH]c2ccccc12)C(=O)N[C@@H](CS)C(N)=O [GMA4C_V5A, FG(Dab)C(Dab)GF(Dab)(Dab)(Dab)CFCW(Dab)WC-NH2] (H-FG[Dab]C[Dab]GF[Dab][Dab][Dab]CFCW[Dab]WC-NH2; N-terminus assumed) | – | – | – | – | – | – | – | Antifungal activity relative to the wild-type GMA4C_AC control [6]: equivalent; Antifungal activity relative to the wild-type GMA4C_AC control ([7]; B. cinerea): equivalent; Antifungal activity relative to the wild-type GMA4C_AC control [8]: equivalent; Antifungal activity relative to the wild-type GMA4C_AC control [9]: equivalent
CC[C@H](C)[C@@H]1NC(=O)[C@H](CCCNC(=N)N)NC(=O)[C@@H](NC(=O)[C@H](CCCNC(=N)N)NC(=O)CNC(=O)[C@@H](N)CO)CSSC[C@@H](C(N)=O)NC(=O)[C@H](CC(N)=O)NC(=O)[C@H](CCCCN)NC(=O)[C@H]([C@@H](C)O)NC(=O)[C@H](Cc2c[nH]c3ccccc23)NC(=O)[C@H](Cc2ccccc2)NC(=O)[C@H](Cc2c[nH]c3ccccc23)NC(=O)[C@H](CCCNC(=N)N)NC(=O)[C@H](Cc2ccccc2)NC(=O)[C@H](CC(C)C)NC1=O [GMA1C_V2] (H-SGRCRILFRWFWTKNC-NH2; disulfide 4-16; N-terminus assumed) | – | – | – | 1.5 to 3 µM | 3 µM | >12 µM | 3 µM | Reduction of gray mold symptoms at 1.5 μM ([5]; drop inoculation assay, peptide 1.5 μM): more effective than GMA1C_V1; Reduction of gray mold symptoms at 3 and 6 μM ([5]; drop inoculation assay, peptide 3 μM and 6 μM): completely abrogated gray mold symptoms
